Measured values published in patent US12534439B2, “Xanthohumol derivatives and methods for making and using” (Oregon State University, priority 2021, dated 2026).

Legend:
3T3L1 cells = assay: MTT cell viability assay in differentiated 3T3L1 adipocytes; format: cell-based, murine
Method: (§1) To assess the toxicity of 4-(5-(4-hydroxyphenyl)-1-methyl-1h-pyrazol-3-yl)-5-methoxy-2-(3-methylbut-2-en-1-yl)benzene-1,3-diol (XP), in vitro cell viability assays were performed on several cell lines. HepG2, 3T3L1 and C2Cl2 cells were exposed to XP and cell viability was assessed using an MTT assay. At concentrations lower than 50 μM, XP had no effect on the viability of the human liver cancer cell lines HepG2 and murine myoblast cell lines C2Cl2 with respect to the control treatment (FIGS. 11A-11B). […] This establishes that XP is safe to use in vivo at dosages similar to xanthohumol.
(§2) Cell Viability Assays. Cells were seeded in 96-well plates 24 hours prior to adding the compound. HepG2 cells were seeded at a density of 5×10^4 cells/mL and C2Cl2 at 1×10^4 cells/mL in order to reach 80% confluency at the beginning of the experiment. After 24 hours, the culture medium was replaced with fresh medium containing various concentrations ranging between 0 and 200 μM of XP. The cells were incubated in the presence of the compound for 24 hours, at which time, the MTT viability assay was carried as previously described. […] The cells were incubated for 3 hours and then acidified with 100% isopropanol for 15 minutes before absorbance reading at 570 nm on a BioTek Synergy HT plate reader.

C2Cl2 cells [1] = assay: MTT cell viability assay in C2Cl2 cells; format: cell-based, murine; conditions: 24 hours
Method: as §1, §2

HFD-fed C57BL/6J mice = assay: Follow-up study: XP given after 4 weeks of HFD pre-conditioning (Example 8); format: in vivo; conditions: for Decrease in weight gain, average: between weeks 9 and 12, versus HFD without compound
Source text: This example concerns the effects of administering 4-(5-(4-hydroxyphenyl)-1-methyl-1H-pyrazol-3-yl)-5-methoxy-2-(3-methylbut-2-en-1-yl)benzene-1,3-diol to mice after a pre-conditioning phase of 4 weeks during which animals were fed a high-fat diet (HFD) or a low-fat diet (LFD). Forty 9-week old wild-type (WT) male C57BL/6J mice were obtained from Jackson Laboratory (Bar Harbor, ME, USA). The mice were housed in ventilated cages under a 12-12-hr light-dark cycle. Of the 40 mice, 32 were fed a HFD (Dyets Inc., Bethlehem, PA, USA) containing 60%, 20% and 20% total calories from fat, carbohydrate and protein, respectively. The remaining 8 mice were fed a LFD (Dyets Inc., Bethlehem, PA, USA), containing 11%, 70% and 19% total calories from fat, carbohydrate and protein, respectively. XP was first dissolved in a mixture of oleic acid:propylene glycol:Tween 80 (0.9:1:1 by weight) before the solution was mixed into the HFD at a concentration of 0.066% to reach a dose of 60 mg/kg body weight/day. After 4 weeks of HFD feeding, the XP-containing HFD was given to 16 of the 32 HFD-pretreated mice for 8 weeks. Sixteen mice in HFD-pretreatment group received a HFD control diet that contained an identical amount of the mixture of oleic acid:propylene glycol:Tween 80 (0.9:1:1 by weight). The LFD-fed mice were continued on the LFD diet. Food intake and body weights were recorded weekly. The mice were euthanized at week 12.

HepG2 cells [2] = assay: MTT cell viability assay in HepG2 cells; format: cell-based, human; conditions: 24 hours
Method: as §1
Cell Viability Assays. Cells were seeded in 96-well plates 24 hours prior to adding the compound. HepG2 cells were seeded at a density of 5×10^4 cells/mL and C2Cl2 at 1×10^4 cells/mL in order to reach 80% confluency at the beginning of the experiment. After 24 hours, the culture medium was replaced with fresh medium containing various concentrations ranging between 0 and 200 μM of XP. The cells were incubated in the presence of the compound for 24 hours, at which time, the MTT viability assay was carried as previously described. MTT was dissolved at 0.5 mg/mL in serum-free Dulbecco's modified Eagle's medium, filter-sterilized and 100 μL was added to the cells. The cells were incubated for 3 hours and then acidified with 100% isopropanol for 15 minutes before absorbance reading at 570 nm on a BioTek Synergy HT plate reader.

[3] = tested on: LPS-activated RAW 264.7 cells; assay: Nitric oxide (NO) assay, Griess reagent; format: cell-based; conditions: LPS 1 μg/mL, 24 hours
Method: Nitric Oxide (NO) Assay. NO secreted by LPS-activated RAW 264.7 cells into the culture medium was determined as nitrite by the Griess reagent. RAW 264.7 1 cells obtained from the American Type Culture Collection (Manassas, VA, USA) were cultured in DMEM supplemented with 2 mM glutamine, antibiotics (100 U/mL penicillin and 100 μg/mL streptomycin), and 10% heat-inactivated fetal bovine serum. The cells were initially grown in 75 cm^2 culture flasks at 37° C. in a humidified incubator with 5% CO2. After reaching 80% confluency, the cells were split by seeding them on 96-well plates (0.2 mL/well) at a density of 1.5×10^5 cells/mL. After a 24-hour incubation at 37° C., the cells were treated with LPS (1 μg/mL) with or without test compounds in various concentrations. Vehicle control cells were treated with dimethyl sulfoxide alone at a final concentration of 0.1%. Culture media from control and treated cells were collected after 24 hours of incubation and were frozen at −80° C. before analysis. For the determination of NO (as […]), […], aliquots of the thawed culture media were mixed with an equal volume of Griess reagent on a 96-well plate. […] The samples were incubated for 10 minutes at room temperature and then the absorbance was read at 550 nm using a SpectraMax 190 (Molecular Devices, Sunnyvale, CA) plate reader.

C2Cl2 cells [4] = conditions: cited from earlier work
[5] = general statement on XN; cited from earlier work
HepG2 cells [6] = conditions: cited from earlier work
[7] = listed as 4-(5-(4-hydroxyphenyl)-1-methyl-1H-pyrazol-3-yl)-5-methoxy-2-(3-methylbut-2-en-1)
[8] = listed as 4-(5-(4-hydroxyphenyl)-1-methyl-1h-pyrazol-3-yl)-5-methoxy-2-(3-methylbut-2-en-1)

SMILES | Concentration without effect on cell viability (3T3L1 cells; 3T3L1, MTT) | Concentration at which dose-dependent reduction in cell viability occurred (3T3L1 cells; differentiated 3T3L1 adipocytes, MTT) | Concentration without effect on cell viability (C2Cl2 cells [1]) | Concentration without effect on cell viability (C2Cl2 cells [1]; [7]) | Weight gain versus control HFD-fed mice (HFD-fed C57BL/6J mice; 60 mg/kg body weight/day in HFD for 8 weeks after 4 weeks HFD) | Decrease in weight gain, average (HFD-fed C57BL/6J mice) | Decrease in weight gain, average (HFD-fed C57BL/6J mice; [8]) | Food intake versus control (HFD-fed C57BL/6J mice; mouse, in vivo) | Concentration without effect on cell viability (HepG2 cells [2]) | Concentration without effect on cell viability (HepG2 cells [2]; [7]) | Concentration without effect on cell viability (HepG2 cells [2]; [8]) | Concentration from which anti-inflammatory activity (decreased NO production) was displayed [3] | Cytotoxic concentration (C2Cl2 cells [4]) | Metabolism [5] | Cytotoxic concentration (HepG2 cells [6])
COc1cc(O)c(CC=C(C)C)c(O)c1-c1cc(-c2ccc(O)cc2)n(C)n1 [XP, 4-(5-(4-hydroxyphenyl)-1-methyl-1H-pyrazol-3-yl)-5-methoxy-2-(3-methylbut-2-en-1-yl)benzene-1,3-diol] | up to 5 μM | 10 µM | lower than 50 μM | up to 25 μM | gained significantly less weight | about 5% | 5% | no difference | lower than 50 μM | up to 25 μM | 1 to 50 µM | ≥ 10 µM | – | – | –
COc1cc(O)c(CC=C(C)C)c(O)c1C(=O)/C=C/c1ccc(O)cc1 [XN, xanthohumol] | – | – | – | – | – | – | – | – | – | – | – | – | above 25 μM | subject to extensive phase 1 and phase 2 metabolism | above 25 μM
